Data reported in US12697328B2, “Methods for treating metastasis with cathepsin C inhibitors” (Shanghai Institute of Nutrition and Health, Chinese Academy …, priority 2020, dated 2026).

Experiments:
[1] = tested on: SCP28 cells overexpressing CTSC; assay: Mice injected with CTSC-overexpressed SCP28 cells, treated with Sivelestat or DNase I; assay type: in vivo
Experimental: Female BALB/c and athymic mice aged 6-10 weeks were used in all animal experiments. Orthotropic and intravenous injection were performed as previously described (Zhuang et al., “Differential effects on lung and bone metastasis of breast cancer by Wnt signalling inhibitor DKK1,” Nat. Cell Biol. 19:1274-1285 (2017)). For EdU labeling assays, nude mice were intravenously injected with 2×10^5 cancer cells, followed by intraperitoneal (i.p.) injection of 100 ng/mouse EdU (ThermoFisher, C10640) 24 h before lung harvest. For neutrophil depletion assays, mice received 2 initial i.p. injection (200 μg/mouse) of 1A8 Ly6G antibody (BE0075-1, BioXCel) or rat IgG control (14131, Sigma) every 3 days before cancer cell injection and then maintenance injection twice a week after cancer cell injection. For Sivelestat or DNase I treatment, mice were i.p. injected with Sivelestat (50 mg/kg) or DNase I (5 mg/kg) 2 h before cancer cell injection, followed by daily injection of the reagents for 9 days, and then maintenance shots twice a week. For GSK484 treatment, mice were treated with GSK484 (20 mg/kg, i.p. daily shots for 20 days from day 7, and then maintenance shots every two days) following orthotopic injection of AT3 or 4T07 cells. For IL-1b blocking or IL6R/CCR1 inhibition assays, mice were orthotopically inoculated with 5×10^4 AT3 and treated with i.p. administration of IgG or the IL-1β blocking antibody (100 μg per mouse), or the IL6R blocking antibody (100 μg per mouse) and the CCR1 inhibitor BX471 (20 mg/kg), every two days from day 7 until the mice were sacrificed. For brensocatib treatment, BALB/c mice were orthotopically inoculated with 1×10^5 4T1 cells, and C57/BL6 mice were orthotopically inoculated with 2×10^5 AT3. […]
The number of myeloperoxidase-positive neutrophils around GFP^+ cancer cells in the lungs of mice 72 h after injection with CTSC-overexpressed SCP28 is quantified by immunostaining of the lung tissue. […]

murine neutrophils = assay: Reactive oxygen species (ROS) analysis of neutrophils pre-treated with 4T07 conditioned medium; assay type: cell-based; conditions: 4T07 CM with CTSC overexpressed, inhibitors 10 μM, FIGS. 8C, 8E
Experimental: To measure the ROS levels, neutrophils were cultured in cancer cell CM or non-conditioned medium, and treated with DMSO or various inhibitors, including Sivelestat (10 μM), BAY11-7082 (10 μM) and SB203580 (10 μM) for 1 h at 37° C. Cells were then harvested and resuspended in assay buffer (PBS, 4 mM EGTA, pH 7.4, containing 10 μM CM-H2DCFDA, Invitrogen), incubated for 15 min at 37° C. in dark, washed with pre-chilled PBS, followed by FACS analysis within 30 min.
The release of reactive oxygen species (ROS) by neutrophils is known to induce NET formation. […] Commum. 6, 6673 (2015).
ROS analysis of murine neutrophils pre-treated with 4T07 conditioned medium show increased ROS production results from CTSC overexpression (FIG. 8E).

IL-1β = IL-1β secretion of neutrophils pre-treated with CM of SCP28 cancer cells (ELISA); assay type: cell-based; conditions: human neutrophils pre-treated with CM of SCP28 with CTSC overexpressed; FIG. 7H
Experimental: ELISA kits were used to assay the levels of human IL-1β (88-7621-88, ThermoFisher), mouse IL-1β (432604, Biolegend), mouse IL6 (88-7064-88, ThermoFisher), mouse CCL3 (88-56013-88, ThermoFisher) in cell culture supernatants or sera according to the manufacturer's instruction. Briefly, 96-well MaxiSorp™ ELISA Plates (44-2404, ThermoFisher) was coated with capture antibody overnight at 4° C. in coating buffer (15 mM of Na2CO3, 35 mM of NaHCO3, at pH 9.6). After three washes in PBS, the wells were blocked with 5% BSA in PBS for 45 min at room temperature. Then, 100 μl of cell culture supernatants or sera and standard samples were added into the wells and incubated for 2 h at room temperature, and the plates were washed three times with washing buffer (1% BSA, 0.05% Tween-20 in PBS). Next, biotin-conjugated detection antibody in 2.5% BSA was added into the wells and incubated for 2 h at room temperature. After three washes with washing buffer, HRP-streptavidin was incubated for 45 min at room temperature. Then, signals were detected using TMB solution and read at 450 nm.

4T1 cells = assay: Brensocatib treatment of mice after fat pad injection of 4T1 cells (lung metastasis of breast cancer); assay type: in vivo, BALB/c mice; conditions: brensocatib 5 mg/kg orally twice daily
Experimental: Female BALB/c and athymic mice aged 6-10 weeks were used in all animal experiments. Orthotropic and intravenous injection were performed as previously described (Zhuang et al., “Differential effects on lung and bone metastasis of breast cancer by Wnt signalling inhibitor DKK1,” Nat. Cell Biol. 19:1274-1285 (2017)). For EdU labeling assays, nude mice were intravenously injected with 2×10^5 cancer cells, followed by intraperitoneal (i.p.) injection of 100 ng/mouse EdU (ThermoFisher, C10640) 24 h before lung harvest. For neutrophil depletion assays, mice received 2 initial i.p. injection (200 μg/mouse) of 1A8 Ly6G antibody (BE0075-1, BioXCel) or rat IgG control (14131, Sigma) every 3 days before cancer cell injection and then maintenance injection twice a week after cancer cell injection. For Sivelestat or DNase I treatment, mice were i.p. injected with Sivelestat (50 mg/kg) or DNase I (5 mg/kg) 2 h before cancer cell injection, followed by daily injection of the reagents for 9 days, and then maintenance shots twice a week. For GSK484 treatment, mice were treated with GSK484 (20 mg/kg, i.p. daily shots for 20 days from day 7, and then maintenance shots every two days) following orthotopic injection of AT3 or 4T07 cells. For IL-1b blocking or IL6R/CCR1 inhibition assays, mice were orthotopically inoculated with 5×10^4 AT3 and treated with i.p. administration of IgG or the IL-1β blocking antibody (100 μg per mouse), or the IL6R blocking antibody (100 μg per mouse) and the CCR1 inhibitor BX471 (20 mg/kg), every two days from day 7 until the mice were sacrificed. For brensocatib treatment, BALB/c mice were orthotopically inoculated with 1×10^5 4T1 cells, and C57/BL6 mice were orthotopically inoculated with 2×10^5 AT3. Vehicle controls (0.5% HPMC, 0.1% Tween 80 in 0.1 M citrate buffer, pH 3) and brensocatib (5 mg/kg) were administered orally twice daily until the mice were sacrificed. Orthotopic tumors were surgically removed at the size of about 1 cm^3. Recombinant human active PR3 treatment (1.5 mg/kg) was administrated intravenously daily after intravenous inoculation of […] LM2 cells. For TSP-1 degradation assays, mice were i.p. injected with GSK484 (20 mg/kg) 2 h before cancer cell injection and followed by daily treatment. Then, the lungs were perfused with 50 ml of pre-chilled PBS through the right ventricle until they were cleared of blood at 72 h post injection of 3×10^6 AT3 or 4T07 cells. BLI was acquired with NightOWL II LB983 Imaging System (Bert-hold) and IVIS Spectrum CT (PerkinElmer). All animal studies were conducted according to the guidelines for the care and use of laboratory animals and were approved by the Institutional Animal Care and Use Committee of Shanghai Institute of Nutrition and Health.
The use of CTSC inhibitors to treat lung metastasis of breast cancer is investigated. Brensocatib (also known as AZD7986 or INS1007) is a CTSC-specific inhibitor used for treating Non-Cystic Fibrosis Bronchiectasis, and has currently entered Phase II clinical trials. See Doyle et aL, “Discovery of second generation reversible covalent DPP1 inhibitors leading to an oxazepane amidoacetonitrile based clinical candidate (AZD7986),” J. Med. Chem. 59:9457-9472 (2016). Brensocatib is administered to mice 7 days after the introduction of 4T1 cells via fat pad injection. A vehicle control group is also provided. Graphical data for change in tumor volume over time, numbers of pulmonary nodules formed, changes in mouse weight over time, and mouse survival rates, as well as the statistical diagram of the number of NETs in the lesions, are shown in FIGS. 10A-E. CTSC inhibitor brensocatib also suppresses the NETs-promoted tumor sphere formation of 4T1 cells (FIG. 10F).

SMILES | neutrophil aggregation around cancer cells in the lungs ([1]; 7 weeks post-injection, FIG. 7G) | neutrophil aggregation around cancer cells in the lungs ([1]; 72 h after injection, Sivelestat 50 mg/kg i.p., FIG. 7F) | lung metastasis (BLI) ([1]; up to 8 weeks post-injection, Sivelestat 50 mg/kg or DNase I 5 mg/kg i.p., FIG. 8G) | ROS production / ROS levels (murine neutrophils) | IL-1β levels (secretion) of neutrophils (IL-1β) | in situ tumor volume vs. time (primary tumor growth) (4T1 cells; from 7 days after 4T1 fat pad injection, vs untreated control, FIG. 10A) | formation of NETs in the lung metastatic lesions (4T1 cells; FIG. 10E) | pulmonary nodule formation (4T1 cells; vs untreated mice, FIG. 10B) | body weight decrease (4T1 cells; vs untreated mice, FIG. 10C) | survival rate (4T1 cells; vs untreated mice, FIG. 10D) | neutrophil infiltration in the pulmonary lesions (4T1 cells; vs untreated mice, FIG. 10E)
CC(C)(C)C(=O)Oc1ccc(S(=O)(=O)Nc2ccccc2C(=O)NCC(=O)O)cc1 [Silvelestat] | persist through 7 weeks post-injection | decreases | suppressed | blocks | reduces |  |  |  |  |  | 
Cn1c(=O)oc2ccc(-c3ccc(C[C@@H](C#N)NC(=O)[C@@H]4CNCCCO4)cc3)cc21 [brensocatib, (2S)—N-{(1S)-1-cyano-2-[4-(3-methyl-2-oxo-2,3-dihydro-1,3-benzoxazol-5-yl)phenyl]ethyl}-1,4-oxazepane-2-carboxamide] |  |  |  |  |  | does not affect primary tumor growth | significantly inhibits | significantly reduced | lower than untreated mice | significantly improves | reduced relative to untreated mice
